Measurements from ChEMBL document CHEMBL1201862, “PubChem BioAssay data set” (2004).
Active and inactive are the calls of the source.

Experiments:
[1] = target: Glyceraldehyde-3-phosphate dehydrogenase (Homo sapiens, UniProt P04406)
HT-1080 = assay: HT1080 cell viability loss – fluorescence readout (AID 620); format: functional, cell-based; conditions: Homo sapiens
cells = format: functional
[2] = Trypanosoma cruzi growth suppression in host cells – NIH3T3 host cells, beta-gal luminescence, confirmation (AID 2044); format: functional, cell-based;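 further: intracellular parasites grown in NIH/3T3 mouse fibroblasts as host cells; luminescent beta-galactosidase reporter signal from transgenic T. cruzi replicating inside host cells; inhibitors lower the luminescence signal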
[3] = NIH3T3 cell viability loss – ATP luminescence, mouse fibroblasts, counter-screen, dose response (AID 2010); format: functional, cell-based; conditions: NIH3T3;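 further: cells exposed to compound for about 90 hours before reading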
[4] = target: Heat shock protein HSP 90-alpha (Homo sapiens, UniProt P07900); assay: Luminescence-based dose response biochemical high throughput screening assay for inhibitors of the Heat Shock Protein 90 (HSP90). [Related pubchem assays: 1831 (Summary AID.), 1846 (Confirmation screen.), 1789 (Primary screen.)]
[5] = target: T1, Calpain-2 catalytic subunit (Sus scrofa, UniProt P43367); assay: m-calpain protease blockers, concentration series – biochemical, fluorogenic peptide substrate, dose response (AID 1420); format: functional
T1 sequence (P43367 whole entry): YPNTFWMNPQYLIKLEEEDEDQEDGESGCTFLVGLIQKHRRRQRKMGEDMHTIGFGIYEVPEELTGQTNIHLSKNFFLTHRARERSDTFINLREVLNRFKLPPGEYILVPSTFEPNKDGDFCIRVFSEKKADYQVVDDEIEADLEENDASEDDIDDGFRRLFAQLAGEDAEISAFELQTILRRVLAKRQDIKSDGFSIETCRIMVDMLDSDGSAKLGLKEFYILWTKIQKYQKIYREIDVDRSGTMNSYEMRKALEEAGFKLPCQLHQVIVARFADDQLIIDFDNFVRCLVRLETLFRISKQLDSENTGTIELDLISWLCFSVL

[6] = viability inhibitors of stage V gametocytes – luminescence, dose response (AID 1117278); format: functional, cell-based;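 further: gametocytes exposed to compound for 24 hours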
[7] = viability loss in human Jurkat cells – cell-based, luminescence, cytotoxicity control for P. falciparum gametocyte viability project, dose response (AID 1117277); format: functional;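 further: potency reflects loss of cellular ATP meaning fewer viable cells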

Glyceraldehyde-3-phosphate dehydrogenase, sequence (P04406 whole entry): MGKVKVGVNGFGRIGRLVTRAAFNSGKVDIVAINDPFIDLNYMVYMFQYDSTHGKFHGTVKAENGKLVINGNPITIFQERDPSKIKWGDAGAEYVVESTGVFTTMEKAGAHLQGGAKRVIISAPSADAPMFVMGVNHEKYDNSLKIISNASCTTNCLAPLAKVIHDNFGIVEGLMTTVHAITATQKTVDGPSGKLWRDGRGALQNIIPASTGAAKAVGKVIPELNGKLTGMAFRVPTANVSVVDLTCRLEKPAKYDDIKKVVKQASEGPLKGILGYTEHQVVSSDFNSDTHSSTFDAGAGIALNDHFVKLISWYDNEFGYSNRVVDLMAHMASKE

Structure (SMILES): CCOc1ccc(OCc2ccc(C(=O)OCc3ccccn3)o2)cc1
- IC50 [1]: > 100 µM (not active)
- EC50 (HT-1080): > 50 µM (not active)
- IC50 (cells): 36 µM (active)

Structure (SMILES): CC(=O)Nc1ccc(OS(=O)(=O)c2ccc([N+](=O)[O-])cc2)cc1
- EC50 [2]: 1.56 µM (active)
- EC50 [3]: > 60 µM (not active)
- IC50 [4]: 3.75 µM (active)

Structure (SMILES): CCc1ccc2nc(NC(=O)Cn3cnc4ccccc4c3=O)sc2c1
- IC50 [5]: 11.7 µM (not active)
- IC50 [6]: > 109 µM (inactive)
- IC50 [7]: > 83.3 µM (inactive)
